Values joined by “and” are separate entries in the source; they are usually repeats but may differ in a detail not shown here. Identical values can stand only once. Like-named read-outs stand apart in the source and are kept apart here.
What was measured:
[1] = test system: Tetranychus urticae; assay: Tetranychus urticae - spray test, OP-resistant (bean leaf discs, 6 days); type: in vivo; conditions: after 6 days; for pest or weed control at 500 g/ha: Tetranychus urticae, foliar, 144 h, read-out: efficacy (spider mites killed)
Method: 5. Tetranychus urticae—Spray Test, OP-Resistant
Solvent: 78.0 parts by weight of acetone
• 1.5 parts by weight of dimethylformamide Emulsifier: alkylaryl polyglycol ether
To produce a suitable preparation of active compound, 1 part by weight of active compound is dissolved using the stated parts by weight of solvent and made up with water containing an emulsifier concentration of 1000 ppm until the desired concentration is attained. To produce further test concentrations, the preparation is diluted with emulsifier-containing water.
Discs of bean leaves (Phaseolus vulgaris) infested with all stages of the greenhouse red spider mite (Tetranychus urticae) are sprayed with an active compound preparation of the desired concentration.
After 6 days, the efficacy in % is determined. 100% means that all the spider mites have been killed; 0% means that no spider mites have been killed.

[2] = test system: Meloidogyne incognita; assay: Meloidogyne incognita - test; type: in vivo; conditions: 20 ppm, lettuce, after 14 days
Method: 2. Meloidogyne incognita—Test Solvent: 125.0 parts by weight of acetone To produce a suitable preparation of active compound, 1 part by weight of active compound is mixed with the stated amount of solvent and the concentrate is diluted with water to the desired concentration. Vessels are filled with sand, active compound solution, an egg/larvae suspension of the southern root-knot nematode (Meloidogyne incognita) and lettuce seeds. The lettuce seeds germinate and the plants develop. The galls develop on the roots. After 14 days, the nematicidal efficacy in % is determined by the formation of galls. 100% means that no galls were found; 0% means that the number of galls on the treated plants corresponds to the untreated control.

[3] = log P determination by HPLC on reversed-phase columns (C 18), analogous to OECD Guideline 117; type: physicochemical; conditions: for logP[a]: method [a]; for logP[b]: method [b]; for chromatographic logP: reversed-phase HPLC column (C 18)
Method: The log P values were determined analogously to OECD Guideline 117 (EC Directive 92/69/EEC) by HPLC (high-performance liquid chromatography) using reversed-phase columns (C 18), by the following methods: [a] The LC-MS determination in the acidic range was effected at pH 2.7 with 0.1% aqueous formic acid and acetonitrile (contains 0.1% formic acid) as eluents; linear gradient from 10% acetonitrile to 95% acetonitrile. log P[a] is also referred to as log P(HCOOH). [b] LC-MS determination in the neutral range was effected at pH 7.8 with 0.001 molar aqueous ammonium hydrogencarbonate solution and acetonitrile as eluents; linear gradient from 10% acetonitrile to 95% acetonitrile. log P[b] is also referred to as log P(neutral). Calibration is effected with solutions of a homologous series of unbranched alkan-2-ones (having 3 to 16 carbon atoms) with known log P values (log P values determined on the basis of the retention times by linear interpolation between two successive alkanones).

[4] = pH 2.7, HPLC, acidic range, pH 2.7, 0.1% aqueous formic acid and acetonitrile, read-out: log P(HCOOH)
[5] = pH 2.7, method [a], read-out: logP[a]
[6] = pH 7.8, HPLC, neutral range, pH 7.8, 0.001 molar aqueous ammonium hydrogencarbonate and acetonitrile, read-out: log P(neutral)
[7] = pH 7.8, method [b], read-out: logP[b]

Row | Compound | efficacy (spider mites killed) ([1]; 500 g/ha) | nematicidal efficacy (formation of galls) [2] | logP[a] [3] | logP[b] [3] | also measured
1 | Cc1cc(Cl)c(N2C(=O)CN(C(=O)NC3CC3)C2=O)cc1SCC(F)(F)F [compound 50] | 100% | 90% | 3.29 | 3.19 | 
2 | Cc1cc(F)c(N2C(=O)CN(C(=O)N3CCC(F)(F)CC3)C2=O)cc1SCC(F)(F)F [compound 129] | 100% | 100% | 3.27 | 3.29 | 
3 | Cc1cc(F)c(N2C(=O)CN(C(=O)N(C)C)C2=O)cc1SCC(F)(F)F [compound 130] | 100% and 90% | 100% | 2.58 | 2.60 | 
4 | Cc1cc(F)c(N2C(=O)CN(C(=O)N(C)C3CC3)C2=O)cc1[S+]([O-])CC(F)(F)F (stereo not shown) [compound 131] | 100% | 100% | 2.08 | 2.16 | 
5 | Cc1cc(F)c(N2C(=O)CN(C(=O)N(C)CC(C)C)C2=O)cc1[S+]([O-])CC(F)(F)F (stereo not shown) [compound 126] | 100% | 100% | 2.6 | 2.66 | 
6 | CCNC(=O)N1CC(=O)N(c2cc(SCC(F)(F)F)c(Cl)cc2Cl)C1=O [compound 103] | 90% | 90% | 3.25 | 3.26 | 
7 | Cc1cc(F)c(N2C(=O)CN(C(=O)Nc3ccccn3)C2=O)cc1SCC(F)(F)F [compound 78] | 100% | 100% | 3.37 | 3.29 | 
8 | Cc1cc(F)c(N2C(=O)CN(C(=O)N3CCS(=O)(=O)CC3)C2=O)cc1SCC(F)(F)F [compound 128] |  | 100% | 2.4 | 2.44 | 
9 | O=C(Nc1ccc(F)cc1)N1CC(=O)N(c2cc(SCC(F)(F)F)c(Cl)cc2Cl)C1=O [compound 108] | 100% | 90% | 4.09 | 4.20 | 
10 | Cc1cc(F)c(N2C(=O)CN(C(=O)N3CCC(F)(F)CC3)C2=O)cc1[S+]([O-])CC(F)(F)F (stereo not shown) [compound 132] | 90% | 100% | 2.41 | 2.46 | 
11 | Cc1cc(F)c(N2C(=O)CN(C(=O)N(C)C3CC3)C2=O)cc1SCC(F)(F)F [compound 121] | 100% | 90% | 2.99 | 3.03 | 
12 | Cc1cc(F)c(N2C(=O)CN(C(=O)N3CCOCC3)C2=O)cc1SCC(F)(F)F [Ex. No. 122, 3-[2-Fluoro-4-methyl-5-(2,2,2-trifluoroethylsulphanyl)phenyl]-1-(morpholine-4-carbonyl)imidazolidine-2,4-dione] |  | 90% |  |  | pest or weed control at 500 g/ha ([1]; 500 g/ha): 100%; chromatographic logP [3, 4]: 2.61; chromatographic logP [3, 5]: 2.58; chromatographic logP [3, 6]: 2.58; chromatographic logP [3, 7]: 2.62
13 | Cc1cc(F)c(N2C(=O)CN(C(=O)N3CCOCC3)C2=O)cc1[S+]([O-])CC(F)(F)F (stereo not shown) [Ex. No. 125, 3-[2-Fluoro-4-methyl-5-(2,2,2-trifluoroethylsulphinyl)phenyl]-1-(morpholine-4-carbonyl)imidazolidine-2,4-dione] |  | 100% |  |  | pest or weed control at 500 g/ha ([1]; 500 g/ha): 100%; chromatographic logP [3, 4]: 1.79; chromatographic logP [3, 5]: 1.75; chromatographic logP [3, 6]: 1.75; chromatographic logP [3, 7]: 1.79
14 | Cc1cc(F)c(N2C(=O)CN(C(=O)Nc3cccnc3)C2=O)cc1[S+]([O-])CC(F)(F)F (stereo not shown) [compound 20] | 100% | 100% | 1.51 | 1.98 | 
15 | COCCNC(=O)N1CC(=O)N(c2cc([S+]([O-])CC(F)(F)F)c(C)cc2F)C1=O (racemic) [compound 82] | 100% |  | 1.97 | 1.94 | 
16 | COCCNC(=O)N1CC(=O)N(c2cc(SCC(F)(F)F)c(C)cc2F)C1=O [compound 66] | 100% |  | 2.77 | 2.76 | 
17 | CC(C)CNC(=O)N1CC(=O)N(c2cc(SCC(F)(F)F)c(Cl)cc2Cl)C1=O [compound 105] | 100% |  | 3.91 | 3.99 | 
18 | O=C(NC1CC1)N1CC(=O)N(c2cc(SCC(F)(F)F)c(Cl)cc2Cl)C1=O [compound 104] | 100% |  | 3.3 | 3.37 | 
19 | Cc1cc(F)c(N2C(=O)CN(C(=O)N(C)C)C2=O)cc1[S+]([O-])CC(F)(F)F (stereo not shown) [compound 133] | 100% |  | 1.75 | 1.78 | 
20 | O=C(Nc1cccc(C(F)(F)F)c1)N1CC(=O)N(c2cc([S+]([O-])CC(F)(F)F)c(Cl)cc2Cl)C1=O (racemic) [compound 120] | 100% |  | 3.92 | 4.02 | 
21 | O=C(Nc1cccc(C(F)(F)F)c1)N1CC(=O)N(c2cc(SCC(F)(F)F)c(Cl)cc2Cl)C1=O [compound 110] | 100% |  | 4.56 | 4.61 | 
22 | Cc1cc(F)c(N2C(=O)CNC2=O)cc1SCC(F)(F)F [IIa-1] |  |  |  |  | pest or weed control at 500 g/ha ([1]; 500 g/ha): 90%; chromatographic logP [3, 4]: 2.11; chromatographic logP ([3]; pH 2.7, Table 3, HPLC, acidic range, pH 2.7, read-out: logP[a]): 2.11; chromatographic logP [3, 6]: 2.08; chromatographic logP ([3]; pH 7.8, Table 3, HPLC, neutral range, pH 7.8, read-out: logP[b]): 2.08
23 | O=C(NC1CC1)N1CC(=O)N(c2cc([S+]([O-])CC(F)(F)F)c(Cl)cc2Cl)C1=O (racemic) [compound 112] | 100% |  | 2.61 | 2.65 | 
24 | CCNC(=O)N1CC(=O)N(c2cc([S+]([O-])CC(F)(F)F)c(Cl)cc2Cl)C1=O (racemic) [compound 111] | 100% |  | 2.56 | 2.59 | 
25 | Cc1cc(Cl)c(N2C(=O)CN(C(=O)NCc3ccccc3)C2=O)cc1[S+]([O-])CC(F)(F)F (racemic) [compound 70] | 100% |  | 2.95 | 2.91 | 
26 | Cc1cc(F)c(N2C(=O)CN(C(=O)NCC3CCCO3)C2=O)cc1SCC(F)(F)F (racemic) [compound 67] | 100% |  | 2.99 | 2.98 | 
27 | Cc1cc(C)c([S+]([O-])CC(F)(F)F)cc1N1C(=O)CN(C(=O)NCC(F)(F)F)C1=O (stereo not shown) [compound 61] | 100% |  | 2.54 | 2.47 | 
28 | Cc1cc(C)c(N2C(=O)CN(C(=O)NCc3ccccc3)C2=O)cc1SCC(F)(F)F [compound 92] | 90% |  | 3.75 | 3.66 | 
29 | Cc1cc(C)c([S+]([O-])CC(F)(F)F)cc1N1C(=O)CN(C(=O)Nc2cccc(Cl)c2)C1=O (racemic) [compound 69] |  |  | 3.37 | 3.33 | efficacy (spider mites killed) ([1]; 100 g/ha): 90%
30 | Cc1cc(F)c(N2C(=O)N(C(=O)NCC(F)(F)F)C(C)(C)C2=O)cc1[S+]([O-])CC(F)(F)F (racemic) [compound 85] | 100% |  | 3.07 | 3.05 | 

From patent publication US10206398B2, “Five-membered C-N-attached aryl sulphide and aryl sulphoxide derivatives as pesticides” (BAYER CROPSCIENCE AKTIENGESELLSCHAFT, priority 2014, dated 2019)
